System: KRAS PDC tumor spheroids (HUVEC+MSC), viability
Assay: Anticancer human tumor 254851-301-R-J1-PDC patient-derived colon carcinoma cell line growth inhibition [KRAS2]
Conditions: for IC50: curve of first compound; for viability, T/C: stronger effect = lower value
Outline: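 KRAS-mutant tumor cells were grown as spheroids with HUVEC endothelial cells and human MSCs as stroma. Targeted agents were tested alone and with KRAS pathway inhibitors. Doses started at or near clinical Cmax, or 10 microM, descending half-log.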

[1] = second compound 0.1 µM, first compound 0.0316 µM
[2] = second compound 0.1 µM, first compound 0.1 µM
[3] = second compound 0.1 µM, first compound 0.316 µM
[4] = second compound 0.1 µM, first compound 1 µM
[5] = second compound 0.1 µM, first compound 3.16 µM
[6] = second compound 0.1 µM, first compound 10 µM
[7] = second compound 0.316 µM, first compound 0.0316 µM
[8] = second compound 0.316 µM, first compound 0.1 µM
[9] = second compound 0.316 µM, first compound 0.316 µM
[10] = second compound 0.316 µM, first compound 1 µM
[11] = second compound 0.316 µM, first compound 3.16 µM
[12] = second compound 0.316 µM, first compound 10 µM
[13] = second compound 1 µM, first compound 0.0316 µM
[14] = second compound 1 µM, first compound 0.1 µM
[15] = second compound 1 µM, first compound 0.316 µM
[16] = second compound 1 µM, first compound 1 µM
[17] = second compound 1 µM, first compound 3.16 µM
[18] = second compound 1 µM, first compound 10 µM
[19] = second compound 3.16 µM, first compound 0.0316 µM
[20] = second compound 3.16 µM, first compound 0.1 µM
[21] = second compound 3.16 µM, first compound 0.316 µM
[22] = second compound 3.16 µM, first compound 1 µM
[23] = second compound 3.16 µM, first compound 3.16 µM
[24] = second compound 3.16 µM, first compound 10 µM
[25] = second compound 10 µM, first compound 0.0316 µM
[26] = second compound 10 µM, first compound 0.1 µM
[27] = second compound 10 µM, first compound 0.316 µM
[28] = second compound 10 µM, first compound 1 µM
[29] = second compound 10 µM, first compound 3.16 µM
[30] = second compound 10 µM, first compound 10 µM
[31] = second compound 0.1 µM, first compound 0.000316 µM
[32] = second compound 0.1 µM, first compound 0.001 µM
[33] = second compound 0.1 µM, first compound 0.00316 µM
[34] = second compound 0.1 µM, first compound 0.01 µM
[35] = second compound 0.316 µM, first compound 0.000316 µM
[36] = second compound 0.316 µM, first compound 0.001 µM
[37] = second compound 0.316 µM, first compound 0.00316 µM
[38] = second compound 0.316 µM, first compound 0.01 µM
[39] = second compound 1 µM, first compound 0.000316 µM
[40] = second compound 1 µM, first compound 0.001 µM
[41] = second compound 1 µM, first compound 0.00316 µM
[42] = second compound 1 µM, first compound 0.01 µM
[43] = second compound 3.16 µM, first compound 0.000316 µM
[44] = second compound 3.16 µM, first compound 0.001 µM
[45] = second compound 3.16 µM, first compound 0.00316 µM
[46] = second compound 3.16 µM, first compound 0.01 µM
[47] = second compound 10 µM, first compound 0.000316 µM
[48] = second compound 10 µM, first compound 0.001 µM
[49] = second compound 10 µM, first compound 0.00316 µM
[50] = second compound 10 µM, first compound 0.01 µM
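Also: spheroids exposed to compounds for seven days before readout.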
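For viability, T/C in this document: 100% = DMSO vehicle control luminescence of the spheroids.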

Row | Structure (SMILES) | IC50 (second compound 0.1 µM) [nM] | IC50 (second compound 0.316 µM) [nM] | IC50 (second compound 1 µM) [nM] | IC50 (second compound 3.16 µM) [nM] | IC50 (second compound 10 µM) [nM] | viability, T/C [1] [%] | viability, T/C [2] [%] | viability, T/C [3] [%] | viability, T/C [4] [%] | viability, T/C [7] [%] | viability, T/C [8] [%] | viability, T/C [9] [%] | viability, T/C [10] [%] | viability, T/C [13] [%] | viability, T/C [14] [%] | viability, T/C [15] [%] | viability, T/C [19] [%] | viability, T/C [20] [%] | viability, T/C [25] [%] | viability, T/C [26] [%] | further results
1 | CC(C)NCC(C(=O)N1CCN(c2ncnc3c2C(C)CC3O)CC1)c1ccc(Cl)cc1 (stereo not given) + COc1cc2nc(C)nc(NC(C)c3cc(N)cc(C(F)(F)F)c3)c2cc1OC1CCOC1 | > 10000 | > 10000 | 2020 | 3160 | 514 | 107 | 99.7 | 99.7 | 91.5 | 101 | 98.2 | 84.3 | 84.1 | 85.2 | 100 | 82.2 | 85.6 | 83.2 | 75.3 | 82 | viability, T/C [5]: 39.8%; viability, T/C [6]: 75.7%; viability, T/C [11]: 31.1%; viability, T/C [12]: 71.4%; viability, T/C [16]: 78.5%; viability, T/C [17]: 32.2%; viability, T/C [18]: 13.7%; viability, T/C [21]: 88.4%; viability, T/C [22]: 44.5%; viability, T/C [23]: 32.5%; viability, T/C [24]: 75.1%; viability, T/C [27]: 56.1%; viability, T/C [28]: 41.2%; viability, T/C [29]: 15.5%; viability, T/C [30]: 29.4%
2 | CC(C)n1nc(-c2ccc3oc(N)nc3c2)c2c(N)ncnc21 + COc1cc2nc(C)nc(NC(C)c3cc(N)cc(C(F)(F)F)c3)c2cc1OC1CCOC1 | 20.7 | 21.1 | 20.7 | 20.1 | 11.6 | 34.7 | 21.4 | – | – | 38.7 | 24 | – | – | 37 | 23.6 | – | 32.6 | 22.5 | 34.2 | 21 | viability, T/C [31]: 99%; viability, T/C [32]: 118%; viability, T/C [33]: 91.2%; viability, T/C [34]: 76.2%; viability, T/C [35]: 102%; viability, T/C [36]: 100%; viability, T/C [37]: 81.7%; viability, T/C [38]: 70.2%; viability, T/C [39]: 88.7%; viability, T/C [40]: 98.6%; viability, T/C [41]: 87.2%; viability, T/C [42]: 72.2%; viability, T/C [43]: 85.3%; viability, T/C [44]: 98.2%; viability, T/C [45]: 88.2%; viability, T/C [46]: 76.7%; viability, T/C [47]: 86.4%; viability, T/C [48]: 97%; viability, T/C [49]: 73.7%; viability, T/C [50]: 51.9%
3 | CC1(C)CCC(CN2CCN(c3ccc(C(=O)NS(=O)(=O)c4ccc(NCC5CCOCC5)c([N+](=O)[O-])c4)c(Oc4cnc5[nH]ccc5c4)c3)CC2)=C(c2ccc(Cl)cc2)C1 + COc1cc2nc(C)nc(NC(C)c3cc(N)cc(C(F)(F)F)c3)c2cc1OC1CCOC1 | > 10000 | > 10000 | > 10000 | 3720 | 1730 | 103 | 95 | 95.7 | 97.6 | 86.5 | 83.9 | 92 | 79.3 | 88.7 | 88.1 | 79.8 | 82.2 | 89.3 | 86.6 | 83.8 | viability, T/C [5]: 91.2%; viability, T/C [6]: 83.2%; viability, T/C [11]: 88.6%; viability, T/C [12]: 66.4%; viability, T/C [16]: 78.1%; viability, T/C [17]: 74.9%; viability, T/C [18]: 49.2%; viability, T/C [21]: 81.2%; viability, T/C [22]: 76.4%; viability, T/C [23]: 53.3%; viability, T/C [24]: 29.6%; viability, T/C [27]: 72.5%; viability, T/C [28]: 73.9%; viability, T/C [29]: 24.2%; viability, T/C [30]: 6.7%
4 | CCN1CCN(Cc2ccc(Nc3ncc(F)c(-c4cc(F)c5nc(C)n(C(C)C)c5c4)n3)nc2)CC1 + COc1cc2nc(C)nc(NC(C)c3cc(N)cc(C(F)(F)F)c3)c2cc1OC1CCOC1 | 573 | 578 | 549 | 120 | 66.6 | 96 | 80.6 | 66.2 | 35.7 | 92.2 | 72.2 | 67.9 | 36.2 | 86.7 | 76.8 | 63.1 | 55.3 | 49.9 | 69.7 | 39.1 | viability, T/C [33]: 97.6%; viability, T/C [34]: 98.1%; viability, T/C [37]: 93.2%; viability, T/C [38]: 92.6%; viability, T/C [41]: 90.3%; viability, T/C [42]: 88.9%; viability, T/C [16]: 36.3%; viability, T/C [45]: 63.5%; viability, T/C [46]: 70%; viability, T/C [21]: 43.3%; viability, T/C [22]: 26%; viability, T/C [49]: 83.2%; viability, T/C [50]: 74.5%; viability, T/C [27]: 17.8%; viability, T/C [28]: 7.16%
5 | CCNC(=O)CC1N=C(c2ccc(Cl)cc2)c2cc(OC)ccc2-n2c(C)nnc21 (stereo not given) + COc1cc2nc(C)nc(NC(C)c3cc(N)cc(C(F)(F)F)c3)c2cc1OC1CCOC1 | 3470 | 2530 | 1940 | 668 | 712 | 115 | 123 | 97.6 | 84.8 | 113 | 122 | 109 | 65.8 | 103 | 111 | 98.6 | 73 | 107 | 79.9 | 81.6 | viability, T/C [5]: 45%; viability, T/C [6]: 43%; viability, T/C [11]: 45.5%; viability, T/C [12]: 45.5%; viability, T/C [16]: 65.9%; viability, T/C [17]: 39.2%; viability, T/C [18]: 17.6%; viability, T/C [21]: 76%; viability, T/C [22]: 36.2%; viability, T/C [23]: 22.4%; viability, T/C [24]: 26.4%; viability, T/C [27]: 74.8%; viability, T/C [28]: 39.2%; viability, T/C [29]: 22.9%; viability, T/C [30]: 15.7%
6 | Cn1ncnc1[C@H]1c2n[nH]c(=O)c3cc(F)cc(c23)N[C@@H]1c1ccc(F)cc1 + COc1cc2nc(C)nc(NC(C)c3cc(N)cc(C(F)(F)F)c3)c2cc1OC1CCOC1 | > 100 | > 100 | > 100 | > 100 | > 100 | 99.6 | 101 | – | – | 84.8 | 89.5 | – | – | 85.9 | 81.3 | – | 87.2 | 80.9 | 69.2 | 74.7 | viability, T/C [31]: 111%; viability, T/C [32]: 95.6%; viability, T/C [33]: 104%; viability, T/C [34]: 100%; viability, T/C [35]: 95.9%; viability, T/C [36]: 100%; viability, T/C [37]: 93.5%; viability, T/C [38]: 80.9%; viability, T/C [39]: 86.9%; viability, T/C [40]: 81.6%; viability, T/C [41]: 83.1%; viability, T/C [42]: 86.4%; viability, T/C [43]: 86.5%; viability, T/C [44]: 83.8%; viability, T/C [45]: 95.9%; viability, T/C [46]: 86%; viability, T/C [47]: 77.9%; viability, T/C [48]: 83%; viability, T/C [49]: 80.8%; viability, T/C [50]: 78.1%

Source: PubChem BioAssay AID1963868 (Molecular Pharmacology Branch, DTP, NCI, 2024)
